From US20260256931A1, “CD276 ANTIBODY AND METHODS OF USE THEREOF” (priority 2023, published 2026)
Where a SMILES comes first, the peptide text is derived from it. [ ]: non-standard residue; d: D form. Dolaproine = CO[C@@H]([C@@H]1CCCN1)[C@@H](C)C(=O)O; Dil = CC[C@H](C)[C@H](NC)[C@@H](CC(=O)O)OC; NMeV = CN[C@H](C(=O)O)C(C)C

Columns and labels:
Format in all cases: cell-based
MDA-MB-468 = experiment: In vitro cytotoxicity assay (MTT), MDA-MB-468; conditions: Homo sapiens, 120 h, MDA-MB-468, five days
Experimental: (§1) The human and mouse TNBC cells were seeded in 96-well plates with a density of 10,000 cells/well for MDA-MB-468, 1,000 cells/well for MDA-MB-231 and 500 cells/well for 4T1. The free MMAF, mAb-MMAF and mAb-MMAF/IMQ were added into each well to reach the final dosages of 0-300 or 400 nM. Higher concentrations, i.e. 0-20 μM, of free IMQ and mAb-IMQ, were tested. The treated cells were incubated at 37° C. and 5% CO2 for five days and the cell viability was analyzed using MTT Cell Proliferation Assay kit.

MDA-MB-231 = experiment: In vitro cytotoxicity assay (MTT), MDA-MB-231; conditions: Homo sapiens, MDA-MB-231, 120 h
Experimental: as §1

4T1 = experiment: In vitro cytotoxicity assay (MTT), 4T1; conditions: Mus musculus, 4T1, 120 h
Experimental: as §1

For `CC[C@H](C)[C@@H]([C@@H](CC(=O)N1CCC[C@H]1[C@H](OC)[C@@H](C)C(=O)N[C@@H](Cc1ccccc1)C(=O)O)OC)N(C)C(=O)[C@@H](NC(=O)[C@@H](NC)C(C)C)C(C)C` [MMAF, Monomethyl auristatin F] (H-[NMeV]V[Dil][Dolaproine]F-OH), which IC50 (MDA-MB-468) is on record?
The IC50 was 0.143 µM.

And the IC50 (MDA-MB-231)?
The IC50 was 0.151 µM.

And the IC50 (4T1)?
Its IC50 is 0.104 µM.
